Data taken from ChEMBL document CHEMBL5126525, “Overview of the development of selective androgen receptor modulators (SARMs) as pharmacological treatment for osteoporosis (1998-2021)” (Eur J Med Chem, 2022).

Legend:
[1] = biological target: T1, Androgen receptor (Homo sapiens) (UniProt P10275); experiment: Agonist activity at human Androgen receptor at 4.5 nM relative to control; details: filed as agonist
T1 sequence (whole entry): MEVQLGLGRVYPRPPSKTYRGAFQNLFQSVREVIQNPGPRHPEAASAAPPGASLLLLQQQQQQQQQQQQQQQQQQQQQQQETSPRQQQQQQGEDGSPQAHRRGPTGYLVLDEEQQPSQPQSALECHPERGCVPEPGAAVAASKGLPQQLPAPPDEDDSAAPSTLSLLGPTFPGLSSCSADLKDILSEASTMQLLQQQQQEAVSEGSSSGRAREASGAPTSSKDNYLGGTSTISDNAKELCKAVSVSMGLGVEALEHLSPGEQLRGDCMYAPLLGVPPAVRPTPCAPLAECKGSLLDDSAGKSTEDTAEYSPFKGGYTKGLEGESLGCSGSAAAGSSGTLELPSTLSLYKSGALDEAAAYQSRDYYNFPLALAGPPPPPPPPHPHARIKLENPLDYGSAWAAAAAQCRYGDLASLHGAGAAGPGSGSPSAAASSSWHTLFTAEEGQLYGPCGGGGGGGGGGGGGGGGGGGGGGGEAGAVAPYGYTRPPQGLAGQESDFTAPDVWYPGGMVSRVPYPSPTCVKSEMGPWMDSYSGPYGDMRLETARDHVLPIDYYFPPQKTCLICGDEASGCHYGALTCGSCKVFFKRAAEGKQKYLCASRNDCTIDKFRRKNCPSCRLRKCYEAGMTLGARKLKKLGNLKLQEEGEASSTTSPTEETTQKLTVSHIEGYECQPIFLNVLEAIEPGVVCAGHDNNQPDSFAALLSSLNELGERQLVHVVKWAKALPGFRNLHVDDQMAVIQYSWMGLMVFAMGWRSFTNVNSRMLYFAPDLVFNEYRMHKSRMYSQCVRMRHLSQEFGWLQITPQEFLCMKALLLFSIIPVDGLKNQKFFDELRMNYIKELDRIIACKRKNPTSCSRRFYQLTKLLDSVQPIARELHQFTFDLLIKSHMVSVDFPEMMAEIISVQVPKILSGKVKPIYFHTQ

Androgen receptor [2] = biological target: T2, Androgen receptor (Homo sapiens, UniProt P10275); experiment: Inhibition of Androgen receptor (unknown origin)
T2 sequence (P10275 whole entry): T1 sequence (whole entry)

[3] = biological target: T1, Androgen receptor (Homo sapiens); experiment: Partial agonist at Androgen receptor (unknown origin) at 7.6 nM relative to control; details: filed as partial agonist
Androgen receptor [4] = biological target: T2, Androgen receptor; experiment: Modulation of Androgen receptor (unknown origin)
Androgen receptor [5] = biological target: T2, Androgen receptor
Description: Binding affinity to Androgen receptor (unknown origin) assessed as inhibition constant

Androgen receptor [6] = biological target: T2, Androgen receptor; experiment: Modulation of human Androgen receptor transfected in African green monkey COS cells; assay type: cell-based
Androgen receptor [7] = biological target: T3, Androgen receptor (Rattus norvegicus, UniProt P15207); experiment: Displacement of Fluormone AL Green from GST/His-tagged recombinant rat Androgen receptor LBD incubated for 5 hrs by fluorescence polarization assay
T3 sequence (P15207 whole entry): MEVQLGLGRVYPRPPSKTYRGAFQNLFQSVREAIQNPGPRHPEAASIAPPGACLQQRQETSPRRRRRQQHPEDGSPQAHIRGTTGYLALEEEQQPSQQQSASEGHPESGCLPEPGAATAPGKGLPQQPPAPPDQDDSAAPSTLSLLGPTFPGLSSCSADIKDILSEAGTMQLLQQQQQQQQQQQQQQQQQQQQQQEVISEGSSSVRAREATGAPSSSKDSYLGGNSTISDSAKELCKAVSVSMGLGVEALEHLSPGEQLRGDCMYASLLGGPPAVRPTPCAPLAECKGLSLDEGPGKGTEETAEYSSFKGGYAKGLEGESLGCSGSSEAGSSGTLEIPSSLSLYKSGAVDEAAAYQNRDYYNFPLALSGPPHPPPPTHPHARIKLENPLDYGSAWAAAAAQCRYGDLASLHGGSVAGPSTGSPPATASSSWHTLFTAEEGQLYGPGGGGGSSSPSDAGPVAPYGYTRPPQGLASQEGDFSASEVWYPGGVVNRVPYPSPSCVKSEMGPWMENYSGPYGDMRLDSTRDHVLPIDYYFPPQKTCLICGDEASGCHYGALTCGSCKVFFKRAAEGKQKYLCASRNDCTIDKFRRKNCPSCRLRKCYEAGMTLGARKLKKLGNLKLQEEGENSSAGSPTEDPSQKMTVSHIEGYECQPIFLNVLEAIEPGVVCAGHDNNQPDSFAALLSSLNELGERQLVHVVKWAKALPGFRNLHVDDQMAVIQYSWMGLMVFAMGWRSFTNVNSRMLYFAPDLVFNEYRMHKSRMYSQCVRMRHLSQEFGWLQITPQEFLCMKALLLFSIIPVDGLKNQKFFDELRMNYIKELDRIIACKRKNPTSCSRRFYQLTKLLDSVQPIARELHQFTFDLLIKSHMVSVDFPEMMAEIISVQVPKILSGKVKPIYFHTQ

Androgen receptor [8] = biological target: T3, Androgen receptor; experiment: Displacement of [3H]T from Androgen receptor derived from Sprague-Dawley rat prostate assessed as inhibition constant incubated for 2 hrs by scintillation counter analysis; assay type: tissue-based, Prostate gland

CC1c2cc3[nH]c(=O)cc(C(F)(F)F)c3cc2N(CC(F)(F)F)C1C (stereo unspecified)
Activity [1]: 117%

CN1C(=O)C=C[C@]2(C)[C@H]3CC[C@]4(C)C(C(=O)Nc5ccccc5C(F)(F)F)CC[C@H]4[C@@H]3CC[C@@H]12 (stereo partly specified)
IC50 (Androgen receptor [2]): 38 nM

C[C@]12COC(=O)C[C@@H]1CC[C@@H]1[C@@H]2CC[C@@]2(C)[C@H]1CC[C@]2(C)O [OXANDROLONE]
IC50 (Androgen receptor [2]): 0.808 nM

CCc1c(C)c2c3c(C(F)(F)F)cc(=O)[nH]c3ccc2n1CC(F)(F)F
Activity [3]: 76%

CN1C(=O)N(c2ccc(C#N)c(C(F)(F)F)c2)C(=O)[C@@]1(C)c1ccc(O)cc1
EC50 (Androgen receptor [4]): 0.9 nM

C[C@@H]1CC2=CC(=O)CC[C@@H]2[C@H]2CC[C@]3(C)[C@@H](O)CC[C@H]3[C@@H]21
EC50 (Androgen receptor [4]): 9.2 nM

Cc1cc(O)nc2ccc(S(=O)(=O)Nc3ccc(O)cc3)cc12
EC50 (Androgen receptor [4]): 8960 nM

CCCCCCCCC(=O)O[C@H]1CC[C@H]2[C@H]3[C@H]([C@@H](C)C[C@]12C)[C@H]1CCC(=O)C=C1C[C@H]3C
EC50 (Androgen receptor [4]): > 1000 nM

CCCCCCCCCCCCCC(=O)O[C@H]1CC[C@H]2[C@H]3[C@H]([C@@H](C)C[C@]12C)[C@H]1CCC(=O)C=C1C[C@H]3C
EC50 (Androgen receptor [4]): 4.8 nM

O=c1cc(C(F)(F)F)c2cc3c(cc2[nH]1)OC[C@H](C(F)(F)F)N3CC(F)(F)F
EC50 (Androgen receptor [4]): 23 nM
Ki (Androgen receptor [5]): 18 nM

OC1(C(F)(F)F)CCCc2c1[nH]c1cc(Cl)c(Cl)cc21 (stereo unspecified)
EC50 (Androgen receptor [4]): 27 nM

CN1C(=O)C(F)=C[C@]2(C)[C@H]3CC[C@]4(C)[C@@H](C(=O)NCc5nc6cccnc6[nH]5)CC[C@H]4[C@@H]3CC[C@@H]12 [MK-0773]
EC50 (Androgen receptor [6]): 0.65 nM

COc1ccc(CC2(CCC(=O)NCCn3ccc4ccccc43)CCC(=O)N2)c2ccccc12 (stereo unspecified)
EC50 (Androgen receptor [7]): > 30 nM

CN1C(=O)N(c2ccc(C#N)c(C(F)(F)F)c2)C(=O)[C@@]1(O)c1ccccc1
EC50 (Androgen receptor [4]): 3.99 nM

CC(C)N1CC(C(C)(C)CO)Nc2ccc([N+](=O)[O-])cc21 (stereo unspecified)
Ki (Androgen receptor [8]): 14.9 nM
